Where two headings read alike, the source gives them in different places.
Experiments:
[1] = Cytotoxicity test, MTT assay; type: cell-based; details: African green monkey, Vero E6 cells
Protocol: (§1) The cytotoxicity test of the test compounds was conducted using Vero E6 cells. Specifically, Vero E6 cells were inoculated in a 96 well plate to be 1×10^4 cells/well, and cultured under standard culture conditions of 3 days, 37° C., and 5% CO2 together with media supplemented with each test compound of each concentration after serial dilution. Thereafter, the viable cell count of each well was quantified by MTT assay to calculate 50% cytotoxicity concentration (CC50).

[2] = tested on: SARS-CoV-2WK-521; experiment: microbe, parasite or virus in culture; type: cell-based; details: for times more excellent EC99 value as compared with PF-7321332: ratio of EC99 values; for times more excellent EC50 value as compared with PF-7321332: ratio of EC50 values
[3] = in vivo; details: mouse, 2 mg/kg; for bioavailability: po, bioavailability (BA); for half-life: iv
[4] = tested on: Vero E6 cells; experiment: Cytotoxicity test, MTT assay; type: cell-based; details: 3 days
Protocol: as §1

[5] = molecular target: Mpro/3CL protease of SARS-CoV-2 (Severe acute respiratory syndrome coronavirus 2 (2019-nCoV) (SARS-CoV-2), UniProt P0DTD1); experiment: Mpro/3CL protease enzyme inhibitory activity, FRET assay kit; type: biochemical; details: fluorogenic substrate, 25° C.
[6] = Severe acute respiratory syndrome coronavirus 2, Vero C1008, 72 h, read-out: EC50
[7] = Vero E6 cells, MOI 0.05, 3 days
[8] = Severe acute respiratory syndrome coronavirus 2, Vero C1008, 72 h, Vero E6 cells, MOI 0.05, 3 days, read-out: EC50

Structure (SMILES) | CC50 at 3 days [1] | EC99 [2] | CC50 [4] | EC50 ([2]; read-out: EC50) | also measured
CC(C)(C)[C@H](NC(=O)C(F)(F)F)C(=O)N1C[C@H]2[C@@H]([C@H]1C(=O)N[C@@H](C[C@@H]1CCNC1=O)C(=O)c1nc3cc(F)ccc3s1)C2(C)C [Compound 272, (1R,2S,5S)-3-((S)-3,3-dimethyl-2-(2,2,2-trifluoroacetamido)butanoyl)-N-((S)-1-(5-fluorobenzo[d]thiazol-2-yl)-1-oxo-3-((S)-2-oxopyrrolidin-3-yl)propan-2-yl)-6,6-dimethyl-3-azabicyclo[3.1.0]hexane-2-carboxamide] | > 80000 nM | – | – | – | EC50 [2, 6]: 8 nM; bioavailability [3]: 99.3%
CC(C)(C)[C@H](NC(=O)C(F)(F)F)C(=O)N1C[C@H]2[C@@H](C1C(=S)N[C@@H](C[C@@H]1CCNC1=O)C(=O)c1nc3c(F)cccc3s1)C2(C)C (stereo partly drawn) [Compound 245s, 2,2,2-trifluoro-N-((S)-1-((1R,2S,5S)-2-(((S)-1-(4-fluorobenzo[d]thiazol-2-yl)-1-oxo-3-((S)-2-oxopyrrolidin-3-yl)propan-2-yl)carbamothioyl)-6,6-dimethyl-3-azabicyclo[3.1 0.0]hexan-3-yl)-3,3-dimethyl-1-oxobutan-2-yl)acetamide] | – | – | – | – | EC75 [2, 7]: 550 nM; EC99 [2, 7]: 0.98 µM; times more excellent EC99 value as compared with PF-7321332 [2]: about 10 times
CC(C)(C)[C@H](NC(=O)C(F)(F)F)C(=O)N1C[C@H]2[C@@H]([C@H]1C(=O)N[C@@H](C[C@@H]1CCNC1=O)C(=O)c1nc3c(F)cccc3s1)C2(C)C [Compound 245, (1R,2S,5S)-3-((S)-3,3-dimethyl-2-(2,2,2-trifluoroacetamido)butanoyl)-N-((S)-1-(4-fluorobenzo[d]thiazol-2-yl)-1-oxo-3-((S)-2-oxopyrrolidin-3-yl)propan-2-yl)-6,6-dimethyl-3-azabicyclo[3.1.0]hexane-2-carboxamide] | > 100000 nM | 0.95 µM | – | – | EC75 [2]: 290 nM; EC50 [2, 6]: 80 nM; suppression of proliferation of SARS-CoV-2 ([2]; concentration of 1 μM): almost completely suppressed; times more excellent EC50 value as compared with PF-7321332 [2]: ≥ 20 times; times more excellent EC99 value as compared with PF-7321332 [2]: about 10 times; half-life [3]: ≥ 45 min; bioavailability [3]: ≥ 31%; bioavailability ([3]; same experiment conducted again, mice, 2 mg/kg P.O. vs I.V., calculated from AUC of FIG. 2): 47.7%
CC1(C)[C@@H]2[C@@H](C(=O)N[C@@H](C[C@@H]3CCNC3=O)C(=O)c3nc4c(F)cccc4s3)N(C(=O)[C@H](CC(F)(F)F)NC(=O)C(F)(F)F)C[C@@H]21 [Compound 248] | – | <1.0 µM | > 100000 nM | < 200 nM | –
CC(C)(C)[C@H](NC(=O)C(F)(F)F)C(=O)N1C[C@H]2[C@@H]([C@H]1C(=O)N[C@@H](C[C@@H]1CCNC1=O)C(=O)c1nc3ccc(F)cc3s1)C2(C)C [Compound 273, (1R,2S,5S)-3-((S)-3,3-dimethyl-2-(2,2,2-trifluoroacetamido)butanoyl)-N-((S)-1-(6-fluorobenzo[d]thiazol-2-yl)-1-oxo-3-((S)-2-oxopyrrolidin-3-yl)propan-2-yl)-6,6-dimethyl-3-azabicyclo[3.1.0]hexane-2-carboxamide] | > 80000 nM | – | – | – | EC50 [2, 6]: 52 nM
CC1(C)[C@@H]2[C@@H](C(=O)N[C@@H](C[C@@H]3CCNC3=O)C(=O)c3nc4c(F)cccc4s3)N(C(=O)c3cc4c(F)ccc(F)c4[nH]3)C[C@@H]21 [Compound 243, (1R,2S,5S)-3-(4,7-difluoro-1H-indole-2-carbonyl)-N-((S)-1-(4-fluorobenzo[d]thiazol-2-yl)-1-oxo-3-((S)-2-oxopyrrolidin-3-yl)propan-2-yl)-6,6-dimethyl-3-azabicyclo[3.1.0]hexane-2-carboxamide] | > 100000 nM | – | – | – | IC50 [5]: 800 nM; EC50 [2, 8]: 750 nM; EC99 [2, 7]: 9.4 µM
CC(C)(F)[C@H](NC(=O)C(F)(F)F)C(=O)N1C[C@H]2[C@@H]([C@H]1C(=S)N[C@@H](C[C@@H]1CCNC1=O)C(=O)c1nc3c(F)cccc3s1)C2(C)C [Compound 250s] | – | <1.0 µM | > 100000 nM | < 300 nM | –
CC1(C)[C@@H]2[C@@H](C(=S)N[C@@H](C[C@@H]3CCNC3=O)C(=O)c3nc4c(F)cccc4s3)N(C(=O)[C@H](CCC(F)(F)F)NC(=O)C(F)(F)F)C[C@@H]21 [Compound 249s] | – | <1.0 µM | > 100000 nM | < 300 nM | –
CC1(C)[C@@H]2[C@@H](C(=O)N[C@@H](C[C@@H]3CCNC3=O)C(=O)c3nc4c(F)cccc4s3)N(C(=O)[C@H](CCC(F)(F)F)NC(=O)C(F)(F)F)C[C@@H]21 [Compound 249] | – | <1.0 µM | > 100000 nM | < 200 nM | –
CC(C)(F)[C@H](NC(=O)C(F)(F)F)C(=O)N1C[C@H]2[C@@H]([C@H]1C(=O)N[C@@H](C[C@@H]1CCNC1=O)C(=O)c1nc3c(F)ccc(F)c3s1)C2(C)C [Compound 251] | – | <1.0 µM | > 100000 nM | < 200 nM | –
CC(C)(F)[C@H](NC(=O)C(F)(F)F)C(=O)N1C[C@H]2[C@@H]([C@H]1C(=O)N[C@@H](C[C@@H]1CCNC1=O)C(=O)c1nc3c(F)cccc3s1)C2(C)C [Compound 250] | – | <1.0 µM | > 100000 nM | < 200 nM | –
CC(C)(C)[C@H](NC(=O)C(F)(F)F)C(=O)N1C[C@H]2[C@@H]([C@H]1C(=S)N[C@@H](C[C@@H]1CCNC1=O)C(=O)c1nc3c(F)ccc(F)c3s1)C2(C)C [Compound 247s] | – | <1.0 µM | > 100000 nM | < 300 nM | –
CC(C)(C)[C@H](NC(=O)C(F)(F)F)C(=O)N1C[C@H]2[C@@H]([C@H]1C(=O)N[C@H](C#N)C[C@@H]1CCNC1=O)C2(C)C [PF-7321332, reference compound] | > 100000 nM | – | – | – | EC50 [2, 8]: 1900 nM; EC75 [2, 7]: 4390 nM; EC99 [2, 7]: 9.68 µM
CC1(C)[C@@H]2[C@@H](C(=S)N[C@@H](C[C@@H]3CCNC3=O)C(=O)c3nc4c(F)cccc4s3)N(C(=O)[C@H](CC(F)(F)F)NC(=O)C(F)(F)F)C[C@@H]21 [Compound 248s] | – | <1.0 µM | > 100000 nM | < 300 nM | –
COc1cccc2[nH]c(C(=O)N[C@@H](CC(C)C)C(=O)N[C@@H](C[C@@H]3CCNC3=O)C(=O)c3nc4ccccc4s3)cc12 [Compound 2420, reference compound] | – | – | – | – | EC50 ([2]; Severe acute respiratory syndrome coronavirus 2, Vero C1008, 72 h): 2700 to 3200 nM; half-life [3]: ~10 min
CC(C)(F)[C@H](NC(=O)C(F)(F)F)C(=O)N1C[C@H]2[C@@H]([C@H]1C(=S)N[C@@H](C[C@@H]1CCNC1=O)C(=O)c1nc3c(F)ccc(F)c3s1)C2(C)C [Compound 251s] | – | <1.0 µM | > 100000 nM | < 300 nM | –
COc1ccc(F)c2[nH]c(C(=O)N3C[C@H]4[C@@H]([C@H]3C(=O)N[C@@H](C[C@@H]3CCNC3=O)C(=O)c3nc5c(F)cccc5s3)C4(C)C)cc12 [Compound 244, (1R,2S,5S)-3-(7-fluoro-4-methoxy-1H-indole-2-carbonyl)-N-((S)-1-(4-fluorobenzo[d]thiazol-2-yl)-1-oxo-3-((S)-2-oxopyrrolidin-3-yl)propan-2-yl)-6,6-dimethyl-3-azabicyclo[3.1.0]hexane-2-carboxamide] | > 100000 nM | – | – | – | IC50 [5]: 600 nM; EC50 [2, 8]: 600 nM; EC99 [2, 7]: 0.99 µM
CC(C)(C)[C@H](NC(=O)C(F)(F)F)C(=O)N1C[C@H]2[C@@H]([C@H]1C(=S)N[C@@H](C[C@@H]1CCNC1=O)C(=O)c1nc3c(F)cccc3s1)C2(C)C [Compound 245s, 2,2,2-trifluoro-N-((S)-1-((1R,2S,5S)-2-(((S)-1-(4-fluorobenzo[d]thiazol-2-yl)-1-oxo-3-((S)-2-oxopyrrolidin-3-yl)propan-2-yl)carbamothioyl)-6,6-dimethyl-3-azabicyclo[3.1 0.0]hexan-3-yl)-3,3-dimethyl-1-oxobutan-2-yl)acetamide] | > 100000 nM | – | – | – | IC50 [5]: 300 nM; EC50 [2, 8]: 310 nM; times more excellent EC50 value as compared with PF-7321332 [2]: ≥ 6 times
CC(C)(C)[C@H](NC(=O)C(F)(F)F)C(=O)N1C[C@H]2[C@@H]([C@H]1C(=O)N[C@@H](C[C@@H]1CCNC1=O)C(=O)c1nc3c(F)ccc(F)c3s1)C2(C)C [Compound 247] | – | <1.0 µM | > 100000 nM | < 200 nM | –

— patent US20240246951A1, “COMPOUND HAVING BIOLOGICAL ACTIVITY SUCH AS ANTIVIRAL ACTIVITY” (NATIONAL CENTER FOR GLOBAL HEALTH AND MEDICINE, priority 2021, published 2024)
